From PubChem BioAssay (NCI)
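Where inhibition never reached the appropriate level, the endpoint shown equals the highest concentration tested. Otherwise, values were interpolated linearly from a five-concentration, 48-hour dose response in 96-well plates. GI50 = concentration required for 50% inhibition of growth. TGI: concentration producing complete growth inhibition.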

Tests used:
Experiment in all cases: NCI-60 cell line screen, 48 h
A498 renal = test system: A498 renal
M14 melanoma = test system: M14 melanoma
MALME-3M melanoma = test system: MALME-3M melanoma
NCI-H522 lung = test system: NCI-H522 lung
OVCAR-4 ovarian = test system: OVCAR-4 ovarian
TK-10 renal = test system: TK-10 renal
UACC-257 melanoma = test system: UACC-257 melanoma
UACC-62 melanoma = test system: UACC-62 melanoma
MCF7 breast = test system: MCF7 breast
SF-295 CNS = test system: SF-295 CNS

SMILES | TGI (A498 renal) [µM] | TGI (M14 melanoma) [µM] | TGI (MALME-3M melanoma) [µM] | TGI (NCI-H522 lung) [µM] | TGI (OVCAR-4 ovarian) [µM] | TGI (TK-10 renal) [µM] | TGI (UACC-257 melanoma) [µM] | TGI (UACC-62 melanoma) [µM] | TGI (MCF7 breast) [µM] | TGI (SF-295 CNS) [µM] | GI50 (A498 renal) [µM] | GI50 (NCI-H522 lung) [µM] | GI50 (OVCAR-4 ovarian) [µM] | GI50 (TK-10 renal) [µM] | GI50 (UACC-257 melanoma) [µM] | GI50 (UACC-62 melanoma) [µM] | GI50 (MALME-3M melanoma) [µM] | GI50 (SF-295 CNS) [µM]
COc1ccc(/C=c2\sc3n(c2=O)C(N)=C(C#N)C(c2ccc(OC)cc2)C=3c2nc3ccccc3[nH]2)cc1 (stereo not drawn) | > 100 | > 100 | 42.2 | > 100 | > 100 | 66.5 | 78.8 | > 100 | – | – | – | – | – | – | – | – | – | –
CN1C(=O)[C@@H]2[C@@H]3c4ccccc4N(S(=O)(=O)C(F)(F)F)[C@@H]3c3[nH]c4ccccc4c3[C@@H]2C1=O | > 100 | – | – | – | > 100 | > 100 | > 100 | > 100 | > 100 | > 100 | – | – | – | – | – | – | – | –
N#C/C(=C\NC(=S)c1ccncc1)c1nc2ccccc2s1 | > 100 | > 100 | – | > 100 | > 100 | > 100 | > 100 | > 100 | > 100 | > 100 | – | – | – | – | – | – | – | –
CC(=C(C(N)=O)C(N)=O)C1C=C(c2cccs2)CC(c2ccc(Cl)cc2)=C1O (stereo not drawn) | > 100 | > 100 | – | > 100 | 78.8 | > 100 | > 100 | > 100 | > 100 | > 100 | – | – | – | – | – | – | – | –
O=C1/C(=C/c2ccccc2O)N=C(c2ccccc2)N1c1nc2ccccc2s1 | 53.1 | 85.6 | – | 17.2 | > 100 | 74.9 | 79.2 | – | 69.2 | 87.1 | – | – | – | – | – | – | – | –
COc1cc(/C=C/C(=O)c2c(C)nc3ccccc3c2C)ccc1OCCCOc1cc2c(cc1OC)C(=O)N1CCC[C@H]1C=N2 | 0.0419 | – | – | 22.9 | 31.5 | 0.0682 | 0.0838 | 0.0321 | – | – | 0.0194 | 0.0337 | 0.0443 | 0.0257 | 0.0269 | 0.017 | – | –
Cn1/c(=N\S(=O)(=O)c2ccccc2)n(S(=O)(=O)c2ccccc2)c2ccccc21 | > 100 | > 100 | > 100 | > 100 | > 100 | > 100 | > 100 | > 100 | – | > 100 | – | – | – | – | – | – | – | –
CN(C)c1nncc2[nH]cnc12 | > 100 | > 100 | – | – | – | > 100 | > 100 | > 100 | > 100 | > 100 | – | – | – | – | – | – | – | –
CCCCCCCCCCCCCC[n+]1ccc2c(C)c3c(c(C)c2c1)c1cc(O)ccc1n3CC | 1.27 | – | 0.706 | 2 | 1.07 | 1.54 | – | 1.87 | – | 1.08 | 0.327 | 0.42 | 0.272 | 0.337 | – | 0.468 | 0.233 | 0.289
